Paper PMC9898036, “VIP152 is a selective CDK9 inhibitor with pre-clinical in vitro and in vivo efficacy in chronic lymphocytic leukemia” (Leukemia, 2022)
Where two headings read alike, the source gives them in different places.

Experiments:
SIK2 = SIK2 (Homo sapiens, UniProt Q9H0K1); assay: KINOMEscan: SIK2; format: binding; details: 100 nM, read-out: Percent Control
[1] = biological target: Nicotinic Acetylcholine α1, Bungarotoxin (Homo sapiens, UniProt P02708+P07510+Q07001); assay: Eurofins Diversity Panel; format: binding; details: read-out: % Inh.
TIE2 = TIE2 (Homo sapiens, UniProt Q02763); assay: KINOMEscan: TIE2; format: binding; details: 100 nM, read-out: Percent Control
MEC-1 = assay: MTS proliferation assay; format: cell-based; details: Homo sapiens
Calcium Channel N-Type = Calcium Channel N-Type (Rattus norvegicus, UniProt Q02294); assay: Eurofins Diversity Panel; format: binding; details: Conc. 10 μM
CAMK1G = CAMK1G (Homo sapiens, UniProt Q96NX5); assay: KINOMEscan: CAMK1G; format: binding; details: 1000 nM, read-out: Percent Control
HIPK3 = HIPK3 (Homo sapiens, UniProt Q9H422); assay: KINOMEscan: HIPK3; format: binding; details: 1000 nM, read-out: Percent Control
IKK-alpha = IKK-alpha (Homo sapiens, UniProt O15111); assay: KINOMEscan: IKK-alpha; format: binding; details: 1000 nM, read-out: Percent Control
BRK = BRK (Homo sapiens, UniProt Q13882); assay: KINOMEscan: BRK; format: binding; details: 1000 nM, read-out: Percent Control
MST2 = MST2 (Homo sapiens, UniProt Q13188); assay: KINOMEscan: MST2; format: binding; details: 1000 nM, read-out: Percent Control
Opiate μ(OP3, MOP) = Opiate μ(OP3, MOP) (Homo sapiens, UniProt P35372); assay: Eurofins Diversity Panel; format: binding; details: hum, Conc. 10 μM
FLT1 = FLT1 (Homo sapiens, UniProt P17948); assay: KINOMEscan: FLT1; format: binding; details: 1000 nM, read-out: Percent Control
MST4 = MST4 (Homo sapiens, UniProt Q9P289); assay: KINOMEscan: MST4; format: binding; details: 1000 nM, read-out: Percent Control
WEE1 = WEE1 (Homo sapiens, UniProt P30291); assay: KINOMEscan: WEE1; format: binding; details: 100 nM, read-out: Percent Control
STK39 = STK39 (Homo sapiens, UniProt Q9UEW8); assay: KINOMEscan: STK39; format: binding; details: 100 nM, read-out: Percent Control
FLT3 = FLT3 (Homo sapiens, UniProt P36888); assay: KINOMEscan: FLT3; format: binding; details: 1000 nM, read-out: Percent Control
Phorbol Ester = assay: Eurofins Diversity Panel; format: binding; details: mouse, Conc. 10 μM
HIPK2 = HIPK2 (Homo sapiens, UniProt Q9H2X6); assay: KINOMEscan: HIPK2; format: binding; details: 1000 nM, read-out: Percent Control
YANK3 = YANK3 (Homo sapiens, UniProt Q86UX6); assay: KINOMEscan: YANK3; format: binding; details: 100 nM, read-out: Percent Control
Potassium Channel [KATP] = Potassium Channel [KATP] (Cricetus cricetus, UniProt Q09427); assay: Eurofins Diversity Panel; format: binding, hamster; details: ham, Conc. 10 μM
Experimental: The structure and synthesis of VIP152 were recently described by Lücking et al.. (Fig. 1A); however, the selectivity of the molecule in cellular systems has yet to be explored. […] We also performed this experiment at 1000 nM, where CDK9 was inhibited at 99%. […] We found a strong concordance between our data and those of Lücking when comparing the most inhibited kinases. Potential off-target effects of VIP152 were next tested in vitro at a concentration of 10 µM for off-target activity against a broad range of receptors, transporters, ion channels, and enzymes (n = 138) using the Eurofins Diversity Panel.

FLT3(ITD,D835V) = assay: KINOMEscan: FLT3(ITD,D835V); format: binding, human; details: 1000 nM
IKK-beta = IKK-beta (Homo sapiens, UniProt O14920); assay: KINOMEscan: IKK-beta; format: binding; details: 1000 nM, read-out: Percent Control
Imidazoline I2, Central = assay: Eurofins Diversity Panel; format: binding; details: rat
BMPR2 = BMPR2 (Homo sapiens, UniProt Q13873); assay: KINOMEscan: BMPR2; format: binding; details: 1000 nM, read-out: Percent Control
Sodium Channel, Site 2 = assay: Eurofins Diversity Panel; format: binding; details: rat, Conc. 10 μM
VEGFR2 = VEGFR2 (Homo sapiens, UniProt P35968); assay: KINOMEscan: VEGFR2; format: binding; details: 100 nM, read-out: Percent Control
MKNK1 = MKNK1 (Homo sapiens, UniProt Q9BUB5); assay: KINOMEscan: MKNK1; format: binding; details: 1000 nM, read-out: Percent Control
[2] = biological target: Serotonin (5-Hydroxytryptamine) 5-HT3) (Homo sapiens, UniProt P46098); assay: Eurofins Diversity Panel; format: binding; details: hum, Conc. 10 μM
GRK3 = GRK3 (Homo sapiens, UniProt P35626); assay: KINOMEscan: GRK3; format: binding; details: 1000 nM, read-out: Percent Control
ERK5 = ERK5 (Homo sapiens, UniProt Q13164); assay: KINOMEscan: ERK5; format: binding; details: 1000 nM, read-out: Percent Control
YSK4 = YSK4 (Homo sapiens, UniProt Q56UN5); assay: KINOMEscan: YSK4; format: binding; details: 100 nM, read-out: Percent Control
GCN2(Kin.Dom.2,S808G) = GCN2(Kin.Dom.2,S808G) (Homo sapiens, UniProt Q9P2K8, S808G); assay: KINOMEscan: GCN2(Kin.Dom.2,S808G); format: binding; details: 1000 nM, read-out: Percent Control
Bradykinin B2 = Bradykinin B2 (Homo sapiens, UniProt P30411); assay: Eurofins Diversity Panel; format: binding; details: hum, Conc. 10 μM
[3] = biological target: EGFR(L747-E749del, A750P) (Homo sapiens, UniProt P00533, A750P/DEL747-749); assay: KINOMEscan: EGFR(L747-E749del, A750P); format: binding; details: 1000 nM, read-out: Percent Control
JNK3 = JNK3 (Homo sapiens, UniProt P53779); assay: KINOMEscan: JNK3; format: binding; details: 1000 nM, read-out: Percent Control
MARK3 = MARK3 (Homo sapiens, UniProt P27448); assay: KINOMEscan: MARK3; format: binding; details: 1000 nM, read-out: Percent Control
CSNK1A1L = CSNK1A1L (Homo sapiens, UniProt Q8N752); assay: KINOMEscan: CSNK1A1L; format: binding; details: 1000 nM, read-out: Percent Control
Chain of CSNK1A1L (Q8N752 whole entry): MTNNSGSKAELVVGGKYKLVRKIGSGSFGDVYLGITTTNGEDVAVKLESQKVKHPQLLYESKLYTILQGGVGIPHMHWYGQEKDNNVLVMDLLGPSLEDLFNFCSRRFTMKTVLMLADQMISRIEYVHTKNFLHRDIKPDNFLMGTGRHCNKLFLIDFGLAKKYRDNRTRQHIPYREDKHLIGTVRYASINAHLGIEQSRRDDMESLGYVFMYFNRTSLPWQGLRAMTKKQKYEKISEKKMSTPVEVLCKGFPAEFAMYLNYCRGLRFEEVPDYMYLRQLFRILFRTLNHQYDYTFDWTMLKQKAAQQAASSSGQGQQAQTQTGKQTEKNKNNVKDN

Chain of FLT3 (P36888 27-993): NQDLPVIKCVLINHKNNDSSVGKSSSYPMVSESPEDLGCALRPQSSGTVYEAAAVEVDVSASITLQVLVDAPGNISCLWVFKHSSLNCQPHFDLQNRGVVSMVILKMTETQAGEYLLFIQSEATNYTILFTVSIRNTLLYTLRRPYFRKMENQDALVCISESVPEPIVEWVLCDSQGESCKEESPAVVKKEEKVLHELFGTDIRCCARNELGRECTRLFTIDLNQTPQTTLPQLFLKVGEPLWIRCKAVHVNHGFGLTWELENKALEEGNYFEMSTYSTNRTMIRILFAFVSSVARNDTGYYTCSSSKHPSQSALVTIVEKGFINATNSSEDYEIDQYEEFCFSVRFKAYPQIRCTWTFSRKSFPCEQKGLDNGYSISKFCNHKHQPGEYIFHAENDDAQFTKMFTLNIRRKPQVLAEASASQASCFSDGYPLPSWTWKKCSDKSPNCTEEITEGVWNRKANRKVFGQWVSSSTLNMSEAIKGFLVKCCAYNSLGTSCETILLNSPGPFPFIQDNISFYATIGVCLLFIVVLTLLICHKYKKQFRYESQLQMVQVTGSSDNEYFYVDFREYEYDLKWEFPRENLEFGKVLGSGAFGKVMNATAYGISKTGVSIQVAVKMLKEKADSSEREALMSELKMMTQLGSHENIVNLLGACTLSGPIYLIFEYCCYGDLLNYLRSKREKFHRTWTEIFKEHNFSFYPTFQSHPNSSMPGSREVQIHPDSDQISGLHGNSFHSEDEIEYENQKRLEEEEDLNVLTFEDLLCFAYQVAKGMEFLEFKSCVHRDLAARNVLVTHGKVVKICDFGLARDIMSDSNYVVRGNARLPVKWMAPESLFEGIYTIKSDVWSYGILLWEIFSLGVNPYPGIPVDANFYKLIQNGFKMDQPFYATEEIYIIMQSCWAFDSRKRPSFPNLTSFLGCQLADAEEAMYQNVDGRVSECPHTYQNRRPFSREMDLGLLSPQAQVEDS
Chain of GCN2(Kin.Dom.2,S808G) (Q9P2K8 590-1001 S808G limits assumed): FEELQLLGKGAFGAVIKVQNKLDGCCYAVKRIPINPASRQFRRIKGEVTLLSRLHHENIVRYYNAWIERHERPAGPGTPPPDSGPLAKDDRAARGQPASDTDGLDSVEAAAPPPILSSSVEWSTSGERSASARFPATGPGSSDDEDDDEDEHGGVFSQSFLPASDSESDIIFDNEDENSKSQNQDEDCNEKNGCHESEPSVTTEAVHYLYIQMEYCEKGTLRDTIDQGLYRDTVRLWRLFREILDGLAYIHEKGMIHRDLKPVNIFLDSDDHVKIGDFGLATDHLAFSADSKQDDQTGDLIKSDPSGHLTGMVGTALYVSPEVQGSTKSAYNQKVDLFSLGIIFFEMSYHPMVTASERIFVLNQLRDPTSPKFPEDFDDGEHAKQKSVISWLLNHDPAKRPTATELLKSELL
Chain of MARK3 (P27448 whole entry): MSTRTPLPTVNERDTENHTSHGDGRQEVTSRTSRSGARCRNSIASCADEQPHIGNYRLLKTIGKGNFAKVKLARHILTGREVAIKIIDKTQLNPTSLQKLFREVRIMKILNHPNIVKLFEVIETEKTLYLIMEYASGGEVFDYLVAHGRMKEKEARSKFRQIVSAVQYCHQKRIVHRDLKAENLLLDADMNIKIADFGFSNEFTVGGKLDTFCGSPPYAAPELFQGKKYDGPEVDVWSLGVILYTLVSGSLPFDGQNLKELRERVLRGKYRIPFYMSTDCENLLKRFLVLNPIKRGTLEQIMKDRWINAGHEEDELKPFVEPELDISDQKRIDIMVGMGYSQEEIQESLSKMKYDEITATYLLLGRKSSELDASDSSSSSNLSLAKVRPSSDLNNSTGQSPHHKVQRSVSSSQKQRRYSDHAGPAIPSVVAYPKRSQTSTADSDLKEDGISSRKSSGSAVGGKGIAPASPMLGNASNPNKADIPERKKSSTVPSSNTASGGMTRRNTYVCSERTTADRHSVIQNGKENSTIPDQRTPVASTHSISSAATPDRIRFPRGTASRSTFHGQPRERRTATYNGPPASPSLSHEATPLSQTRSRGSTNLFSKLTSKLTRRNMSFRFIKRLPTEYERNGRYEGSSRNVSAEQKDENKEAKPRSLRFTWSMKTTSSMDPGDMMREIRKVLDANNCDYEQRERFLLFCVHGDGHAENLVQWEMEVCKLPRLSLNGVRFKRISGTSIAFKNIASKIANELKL
Chain of Opiate μ(OP3, MOP) (P35372 whole entry): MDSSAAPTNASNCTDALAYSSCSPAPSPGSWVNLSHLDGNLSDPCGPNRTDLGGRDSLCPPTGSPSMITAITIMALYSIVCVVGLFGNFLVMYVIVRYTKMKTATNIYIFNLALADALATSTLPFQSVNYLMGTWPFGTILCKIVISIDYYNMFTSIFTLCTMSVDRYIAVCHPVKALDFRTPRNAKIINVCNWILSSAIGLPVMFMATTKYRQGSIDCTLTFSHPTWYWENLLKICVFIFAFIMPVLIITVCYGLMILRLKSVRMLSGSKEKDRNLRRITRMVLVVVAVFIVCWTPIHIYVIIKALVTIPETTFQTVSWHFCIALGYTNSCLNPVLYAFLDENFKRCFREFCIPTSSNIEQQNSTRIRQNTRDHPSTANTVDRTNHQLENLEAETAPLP
Chain of Serotonin (5-Hydroxytryptamine) 5-HT3) (P46098 24-478): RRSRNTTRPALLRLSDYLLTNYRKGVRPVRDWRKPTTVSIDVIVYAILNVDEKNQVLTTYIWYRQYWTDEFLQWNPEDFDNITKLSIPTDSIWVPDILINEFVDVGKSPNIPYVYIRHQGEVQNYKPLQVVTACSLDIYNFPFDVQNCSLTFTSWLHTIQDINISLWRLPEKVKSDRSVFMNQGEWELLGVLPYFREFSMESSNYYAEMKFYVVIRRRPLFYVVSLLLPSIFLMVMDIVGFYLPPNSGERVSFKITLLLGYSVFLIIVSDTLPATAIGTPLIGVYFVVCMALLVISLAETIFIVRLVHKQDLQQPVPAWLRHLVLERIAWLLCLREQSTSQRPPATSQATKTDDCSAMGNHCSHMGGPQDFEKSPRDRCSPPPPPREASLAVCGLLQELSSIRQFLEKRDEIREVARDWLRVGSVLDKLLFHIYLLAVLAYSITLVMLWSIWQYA
Chain of MST4 (Q9P289 whole entry): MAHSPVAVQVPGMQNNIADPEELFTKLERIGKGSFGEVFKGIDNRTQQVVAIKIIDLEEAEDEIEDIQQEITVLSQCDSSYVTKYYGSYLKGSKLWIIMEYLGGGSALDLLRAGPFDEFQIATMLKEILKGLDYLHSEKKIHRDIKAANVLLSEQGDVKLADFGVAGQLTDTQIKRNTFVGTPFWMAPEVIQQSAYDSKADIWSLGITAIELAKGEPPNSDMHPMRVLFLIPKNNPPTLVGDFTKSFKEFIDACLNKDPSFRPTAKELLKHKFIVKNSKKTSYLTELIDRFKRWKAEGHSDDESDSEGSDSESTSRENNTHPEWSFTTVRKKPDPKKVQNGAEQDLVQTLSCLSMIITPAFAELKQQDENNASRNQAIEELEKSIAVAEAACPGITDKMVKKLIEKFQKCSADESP
Chain of CAMK1G (Q96NX5 whole entry): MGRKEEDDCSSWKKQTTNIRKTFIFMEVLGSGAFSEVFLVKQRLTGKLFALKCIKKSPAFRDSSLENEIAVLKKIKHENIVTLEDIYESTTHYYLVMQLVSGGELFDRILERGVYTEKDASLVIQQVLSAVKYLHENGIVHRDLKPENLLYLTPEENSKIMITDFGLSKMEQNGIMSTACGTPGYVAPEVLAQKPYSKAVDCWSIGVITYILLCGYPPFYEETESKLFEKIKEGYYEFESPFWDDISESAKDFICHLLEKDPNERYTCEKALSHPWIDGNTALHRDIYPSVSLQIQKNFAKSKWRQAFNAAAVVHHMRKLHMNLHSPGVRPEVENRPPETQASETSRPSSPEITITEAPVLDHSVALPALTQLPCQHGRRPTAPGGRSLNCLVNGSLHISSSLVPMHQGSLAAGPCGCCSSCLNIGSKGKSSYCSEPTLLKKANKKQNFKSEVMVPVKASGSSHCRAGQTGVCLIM
Chain of YANK3 (Q86UX6 whole entry): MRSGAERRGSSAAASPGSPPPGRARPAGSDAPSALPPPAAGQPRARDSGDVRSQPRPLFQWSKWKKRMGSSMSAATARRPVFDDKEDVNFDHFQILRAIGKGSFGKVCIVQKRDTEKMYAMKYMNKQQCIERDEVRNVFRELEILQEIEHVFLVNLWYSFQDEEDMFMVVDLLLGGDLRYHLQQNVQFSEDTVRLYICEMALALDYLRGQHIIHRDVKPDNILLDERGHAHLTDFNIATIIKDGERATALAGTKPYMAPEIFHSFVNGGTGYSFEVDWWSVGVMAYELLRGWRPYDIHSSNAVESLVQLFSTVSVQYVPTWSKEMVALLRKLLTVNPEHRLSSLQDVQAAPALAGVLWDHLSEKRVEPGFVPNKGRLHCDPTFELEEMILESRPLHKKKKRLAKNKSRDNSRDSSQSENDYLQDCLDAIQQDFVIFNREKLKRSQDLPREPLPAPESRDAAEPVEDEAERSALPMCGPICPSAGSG

COc1cc(F)ccc1-c1cc(Nc2cc(CS(C)(=N)=O)ccn2)ncc1F (stereo not shown) [VIP152]
remaining binding at 0.1 µM (SIK2): 63% | inhibition at 10 µM [1]: 3% | remaining binding at 0.1 µM (TIE2): 100% | IC50 (MEC-1; MEC1, 24, 48, and 72 h, read-out: proliferation IC50): 150 to 1000 nM | IC50 (MEC-1; MEC1, two-hour drugging followed by washout, MTS after 72 h, read-out: 50% growth inhibition): 1700 nM | inhibition at 10 µM (Calcium Channel N-Type): 4% | remaining binding at 1 µM (CAMK1G): 89% | remaining binding at 1 µM (HIPK3): 66% | remaining binding at 1 µM (IKK-alpha): 93% | remaining binding at 1 µM (BRK): 79% | remaining binding at 1 µM (MST2): 96% | inhibition at 10 µM (Opiate μ(OP3, MOP)): 8% | remaining binding at 1 µM (FLT1): 86% | remaining binding at 1 µM (MST4): 89% | remaining binding at 0.1 µM (WEE1): 98% | remaining binding at 0.1 µM (STK39): 100% | remaining binding at 1 µM (FLT3): 38% | % Inh. (Phorbol Ester): 8% | remaining binding at 1 µM (HIPK2): 71% | remaining binding at 0.1 µM (YANK3): 99% | inhibition at 10 µM (Potassium Channel [KATP]): -19% | Percent Control (FLT3(ITD,D835V)): 60% | remaining binding at 1 µM (IKK-beta): 100% | IC50 (Imidazoline I2, Central): 1400 nM | Ki (Imidazoline I2, Central): 930 nM | % Inh. (Imidazoline I2, Central; Conc. 10 μM): 82% | remaining binding at 1 µM (BMPR2): 93% | % Inh. (Sodium Channel, Site 2): 26% | remaining binding at 0.1 µM (VEGFR2): 89% | remaining binding at 1 µM (MKNK1): 98% | inhibition at 10 µM [2]: -3% | remaining binding at 1 µM (GRK3): 100% | remaining binding at 1 µM (ERK5): 95% | remaining binding at 0.1 µM (YSK4): 100% | remaining binding at 1 µM (GCN2(Kin.Dom.2,S808G)): 100% | inhibition at 10 µM (Bradykinin B2): 9% | remaining binding at 1 µM [3]: 80% | remaining binding at 1 µM (JNK3): 82% | remaining binding at 1 µM (MARK3): 100% | remaining binding at 1 µM (CSNK1A1L): 92%
